Read-outs that look alike come from different tables or passages of the source.
Assays:
CD4 T cells (PBMC) [1] = assay: Ex vivo class II tetramer staining and phenotyping of PBMC from adults; assay type: cell-based, human (DRB1*0101 healthy adults); details: for #Tet+/6.0×10^5 CD4+ T cells: ex vivo fresh PBMC, tetramer of the peptide; for % α4β7(+) CCR9(+) / % α4β7(+) CCR9(−) / % α4β7(−) CCR9(+) / % α4β7(−) CCR9(−): of antigen experienced tetramer+ CD4 T cells; for % Antigen experienced T cells: tetramer+ CD4 T cells, CD62L−CD45RA+/− and CD62L+CD45RA−
CD4 T cells (PBMC) [2] = assay type: cell-based, human (HLA-DR1 children)

## RVEYHFLSPYVSRKESP [TRF]
CD4 T cells (PBMC) [1]; HA-02
  #Tet+/6.0×10^5 CD4+ T cells: 8 /6.0×10^5 CD4^+ T cells
  % α4β7(+) CCR9(+): 33.3%
  % α4β7(+) CCR9(−): 33.3%
  % α4β7(−) CCR9(+): 0%
  % α4β7(−) CCR9(−): 33.3%
  % Antigen experienced T cells: 54.5%
CD4 T cells (PBMC) [1]; HA-15
  #Tet+/6.0×10^5 CD4+ T cells: 4 /6.0×10^5 CD4^+ T cells
  % Antigen experienced T cells: 0%
CD4 T cells (PBMC) [1]; HA-19
  #Tet+/6.0×10^5 CD4+ T cells: 10 /6.0×10^5 CD4^+ T cells
  % α4β7(+) CCR9(+): 33.3%
  % α4β7(+) CCR9(−): 8.33%
  % α4β7(−) CCR9(+): 25%
  % α4β7(−) CCR9(−): 33.3%
  % Antigen experienced T cells: 85.7%
CD4 T cells (PBMC) [1]; HA-23
  #Tet+/6.0×10^5 CD4+ T cells: 8 /6.0×10^5 CD4^+ T cells
  % α4β7(+) CCR9(+): 25%
  % α4β7(+) CCR9(−): 25%
  % α4β7(−) CCR9(+): 0%
  % α4β7(−) CCR9(−): 50%
  % Antigen experienced T cells: 57.1%
CD4 T cells (PBMC) [1]; HA-29
  #Tet+/6.0×10^5 CD4+ T cells: 14 /6.0×10^5 CD4^+ T cells
  % α4β7(+) CCR9(+): 50%
  % α4β7(+) CCR9(−): 0%
  % α4β7(−) CCR9(+): 0%
  % α4β7(−) CCR9(−): 50%
  % Antigen experienced T cells: 50%
CD4 T cells (PBMC) [1]; HA-41
  #Tet+/6.0×10^5 CD4+ T cells: 3 /6.0×10^5 CD4^+ T cells
  % α4β7(+) CCR9(+): 0%
  % α4β7(+) CCR9(−): 33.3%
  % α4β7(−) CCR9(+): 0%
  % α4β7(−) CCR9(−): 66.7%
  % Antigen experienced T cells: 100%
CD4 T cells (PBMC) [1]; HA-51
  #Tet+/6.0×10^5 CD4+ T cells: 98 /6.0×10^5 CD4^+ T cells
  % α4β7(+) CCR9(+): 20.7%
  % α4β7(+) CCR9(−): 44.8%
  % α4β7(−) CCR9(+): 6.9%
  % α4β7(−) CCR9(−): 27.6%
  % Antigen experienced T cells: 36.7%
CD4 T cells (PBMC) [1]; HA-52
  #Tet+/6.0×10^5 CD4+ T cells: 72 /6.0×10^5 CD4^+ T cells
  % α4β7(+) CCR9(+): 0%
  % α4β7(+) CCR9(−): 66.7%
  % α4β7(−) CCR9(+): 0%
  % α4β7(−) CCR9(−): 33.3%
  % Antigen experienced T cells: 27.3%
CD4 T cells (PBMC) [2]; both groups of children (vaccinated and placebo), data not shown
  Tetramer+ cells with phenotype of antigen-experienced cells: 0–30%
CD4 T cells (PBMC) [2]; placebo recipient children (n = 3)
  Frequency of tetramer stained antigen experienced CD4 T cells: <0.0001–0.003%
CD4 T cells (PBMC) [2]; vaccinated children (n = 3), two weeks after second dose of RIX4414
  Frequency of tetramer stained antigen experienced CD4 T cells: <0.0001–0.01%
